Test results as given in paper PMC12079475, “Identification, validation, and characterization of approved and investigational drugs interfering with the SARS‐CoV‐2 endoribonuclease Nsp15” (Protein Science : A Publication of the Protein Society, 2025).
pIC50: −log10 of the molar value. Structures can show the parent of a compound that is named as a salt. Where two headings read alike, the source gives them in different places.

Columns and labels:
SARS‐CoV‐2 Nsp15 [1] = target: T1, SARS‐CoV‐2 Nsp15 (Severe acute respiratory syndrome coronavirus 2, UniProt P0DTD1); test: biochemical; conditions: for pIC50: read-out: IC50 +DTT
SARS‐CoV‐2 Nsp15 [2] = target: T1, SARS‐CoV‐2 Nsp15; test: biochemical; format: biochemical; conditions: for inhibition at 10 µM: read-out: Inhibition % +L-Cys 10 µM; for loss of the inhibition potency in L‐cysteine buffer: 1 mM L‐cysteine buffer compared with DTT buffer; for pIC50: L-cysteine buffer (Table S1), read-out: IC50 +L-Cys
[3] = 1 mM DTT buffer, confidence interval in brackets, read-out: IC50 + DTT (μM) (CI in μM)
[4] = hit confirmation, 10 µM, DTT buffer
[5] = primary screen, 10 µM (Table S1)
[6] = primary screen, 10 μM compound, 1 mM DTT buffer, normalized to 50 μM Congo red (100%) and DMSO (0%)
[7] = hit confirmation, 10 µM, DTT buffer, read-out: HC inhibition % +DTT 10 µM
[8] = primary screen, 10 µM (Table S1), read-out: PS Inhibition % 10 µM
[9] = primary screen, 10 μM compound, 1 mM DTT buffer, normalized to 50 μM Congo red (100%) and DMSO (0%), read-out: PS inhibition % 10 μM (single point measurement)
[10] = 1 mM L-cysteine buffer, confidence interval in brackets, read-out: IC50 + L‐Cys (μM) (CI in μM)

`Cc1[nH]c2ccc(F)cc2c1-c1nc2c3cccnc3c3ncccc3c2[nH]1` [APTO‐253] was tested, and the IC50 (SARS‐CoV‐2 Nsp15 [1]; [3]) was 7.8 µM, the pIC50 (SARS‐CoV‐2 Nsp15 [1]; DTT buffer (Table S1)) was 5.11 and the “HC inhibition % +DTT 10 µM” value (SARS‐CoV‐2 Nsp15 [1]; [4]) was 78,02%. For the same compound, the “PS Inhibition % 10 µM” value (SARS‐CoV‐2 Nsp15 [1]; [5]) was 61,11%, the “PS inhibition % 10 μM (single point measurement)” value (shortened to “PS inhibition % 10 μM”) (SARS‐CoV‐2 Nsp15 [1]; [6]) was 61.1% and the “Inhibition % +L-Cys 10 µM” value (SARS‐CoV‐2 Nsp15 [2]; 10 µM, L-cysteine buffer) was 48,13%.

Work on `CC(C)Nc1cccnc1N1CCN(C(=O)c2cc3cc(NS(C)(=O)=O)ccc3[nH]2)CC1` [Delavirdine (mesylate)] yielded an IC50 (SARS‐CoV‐2 Nsp15 [1]; [3]) of 2.3 µM, a pIC50 (SARS‐CoV‐2 Nsp15 [1]; DTT buffer (Table S1)) of 5.64 and an inhibition at 10 µM (SARS‐CoV‐2 Nsp15 [1]; [7]) of 77.3%. It also gave an inhibition at 10 µM (SARS‐CoV‐2 Nsp15 [1]; [8]) of 80.7%, an inhibition at 10 µM (SARS‐CoV‐2 Nsp15 [1]; [9]) of 80.7% and an inhibition at 10 µM (SARS‐CoV‐2 Nsp15 [2]; 10 µM, L-cysteine buffer) of 27.2%. The “loss of the inhibition potency in L‐cysteine buffer” value (“loss of the inhibition potency” for short) (SARS‐CoV‐2 Nsp15 [2]) was “more than 50%”.

Work on `COc1cccc2c1C(=O)c1c(O)c3c(c(O)c1C2=O)C[C@@](O)(C(=O)CO)C[C@@H]3O[C@H]1C[C@H](N)[C@H](O)[C@H](C)O1` [Doxorubicin] yielded an IC50 (SARS‐CoV‐2 Nsp15 [1]; IC50 + DTT (μM) (CI in μM)) of 3.7 µM, an IC50 (SARS‐CoV‐2 Nsp15 [1]; IC50 +DTT (µM)) of 3.69 µM and an IC50 (SARS‐CoV‐2 Nsp15 [2]; IC50 + L‐Cys (μM) (CI in μM)) of 2.3 µM. It also gave an IC50 (SARS‐CoV‐2 Nsp15 [2]; IC50 +L-Cys (µM)) of 2.26 µM.

In the case of `COc1cccc(C=NCCN=Cc2cccc(OC)c2[O-])c1[O-].[Cl-].[Mn+3]` [EUK 134], the IC50 (SARS‐CoV‐2 Nsp15 [1]; [3]) was 3.3 µM, the pIC50 (SARS‐CoV‐2 Nsp15 [1]; DTT buffer (Table S1)) was 5.48 and the “HC inhibition % +DTT 10 µM” value (SARS‐CoV‐2 Nsp15 [1]; [4]) was 56,68%. For the same compound, the “PS Inhibition % 10 µM” value (SARS‐CoV‐2 Nsp15 [1]; [5]) was 70,85%, the “PS inhibition % 10 μM” value (SARS‐CoV‐2 Nsp15 [1]; [6]) was 70.9% and the “Inhibition % +L-Cys 10 µM” value (SARS‐CoV‐2 Nsp15 [2]; 10 µM, L-cysteine buffer) was 16,41%. For the same compound, the “loss of the inhibition potency” value (SARS‐CoV‐2 Nsp15 [2]) was “more than 50%”.

`COc1cc2c(cc1OC)CN(CCc1ccc(NC(=O)c3cccc4c(=O)c5cccc(OC)c5[nH]c34)cc1)CC2` [Elacridar] gave an IC50 (SARS‐CoV‐2 Nsp15 [1]; [3]) of 4.9 µM, a pIC50 (SARS‐CoV‐2 Nsp15 [1]; DTT buffer (Table S1)) of 5.30 and an inhibition at 10 µM (SARS‐CoV‐2 Nsp15 [1]; [7]) of 72.7%. For the same compound, the inhibition at 10 µM (SARS‐CoV‐2 Nsp15 [1]; [8]) was 68.3%, the inhibition at 10 µM (SARS‐CoV‐2 Nsp15 [1]; [9]) was 68.3% and the inhibition at 10 µM (SARS‐CoV‐2 Nsp15 [2]; 10 µM, L-cysteine buffer) was 15.9%. For the same compound, the “loss of the inhibition potency” value (SARS‐CoV‐2 Nsp15 [2]) was “more than 50%”.

Compound `COc1cccc2c1C(=O)c1c(O)c3c(c(O)c1C2=O)C[C@@](O)(C(=O)CO)C[C@@H]3O[C@H]1C[C@H](N)[C@@H](O)[C@H](C)O1` [Epirubicin hydrochloride] has an IC50 (SARS‐CoV‐2 Nsp15 [1]; IC50 + DTT (μM) (CI in μM)) of 3.4 µM, an IC50 (SARS‐CoV‐2 Nsp15 [1]; IC50 +DTT (µM)) of 3.37 µM and an IC50 (SARS‐CoV‐2 Nsp15 [2]; IC50 + L‐Cys (μM) (CI in μM)) of 1.5 µM. For the same compound, the IC50 (SARS‐CoV‐2 Nsp15 [2]; IC50 +L-Cys (µM)) was 1.46 µM.

With `CCOC(=O)CCNc1cc(N2CCc3ccccc3CC2)nc(-c2ccccn2)n1` [GSK J4 HCl] the IC50 (SARS‐CoV‐2 Nsp15 [1]; [3]) was 5.5 µM, the pIC50 (SARS‐CoV‐2 Nsp15 [1]; DTT buffer (Table S1)) was 5.26 and the inhibition at 10 µM (SARS‐CoV‐2 Nsp15 [1]; [7]) was 82.2%. For the same compound, the inhibition at 10 µM (SARS‐CoV‐2 Nsp15 [1]; [8]) was 75.8%, the inhibition at 10 µM (SARS‐CoV‐2 Nsp15 [1]; [9]) was 75.8% and the inhibition at 10 µM (SARS‐CoV‐2 Nsp15 [2]; 10 µM, L-cysteine buffer) was 77.9%. The IC50 (SARS‐CoV‐2 Nsp15 [2]; [10]) was 3.8 µM and the pIC50 (SARS‐CoV‐2 Nsp15 [2]) was 5.42.

With `Oc1ccc2ccccc2c1SSc1c(O)ccc2ccccc12` [IPA‐3] the “HC inhibition % +DTT 10 µM” value (SARS‐CoV‐2 Nsp15 [1]) was 89,23%, the “PS Inhibition % 10 µM” value (SARS‐CoV‐2 Nsp15 [1]) was 86,58% and the “PS inhibition % 10 μM” value (SARS‐CoV‐2 Nsp15 [1]) was 86.6%. For the same compound, the IC50 (SARS‐CoV‐2 Nsp15 [1]; read-out: IC50 + DTT (μM) (CI in μM)) was 0.9 µM, the pIC50 (SARS‐CoV‐2 Nsp15 [1]) was 6.00 and the “Inhibition % +L-Cys 10 µM” value (SARS‐CoV‐2 Nsp15 [2]) was 51,34%.

In the case of `O=C1c2c(O)ccc(O)c2C(=O)c2c(NCCNCCO)ccc(NCCNCCO)c21` [Mitoxantrone hydrochloride], the IC50 (SARS‐CoV‐2 Nsp15 [1]; IC50 + DTT (μM) (CI in μM)) was 1.5 µM, the IC50 (SARS‐CoV‐2 Nsp15 [1]; IC50 +DTT (µM)) was 1.47 µM and the IC50 (SARS‐CoV‐2 Nsp15 [2]; IC50 + L‐Cys (μM) (CI in μM)) was 0.5 µM. The IC50 (SARS‐CoV‐2 Nsp15 [2]; IC50 +L-Cys (µM)) was 0.47 µM.

For `O=C1C(Cl)=C(NCCN2CCOCC2)C(=O)c2ncccc21` [NSC‐663284], the IC50 (SARS‐CoV‐2 Nsp15 [1]; [3]) was 0.5 µM, the pIC50 (SARS‐CoV‐2 Nsp15 [1]; DTT buffer (Table S1)) was 6.32 and the “HC inhibition % +DTT 10 µM” value (SARS‐CoV‐2 Nsp15 [1]; [4]) was 82,57%. For the same compound, the “PS Inhibition % 10 µM” value (SARS‐CoV‐2 Nsp15 [1]; [5]) was 85,51%, the “PS inhibition % 10 μM” value (SARS‐CoV‐2 Nsp15 [1]; [6]) was 85.5% and the “Inhibition % +L-Cys 10 µM” value (SARS‐CoV‐2 Nsp15 [2]; 10 µM, L-cysteine buffer) was 53,53%.

`COc1cccc2c1C(=O)c1c(O)c3c(c(O)c1C2=O)C[C@@](O)(C(=O)CO)C[C@@H]3O[C@H]1C[C@H](N2CCO[C@H](OC)C2)[C@H](O)[C@H](C)O1` [Nemorubicin] showed an IC50 (SARS‐CoV‐2 Nsp15 [1]; [3]) of 2.6 µM, a pIC50 (SARS‐CoV‐2 Nsp15 [1]; DTT buffer (Table S1)) of 5.58 and an inhibition at 10 µM (SARS‐CoV‐2 Nsp15 [1]; [7]) of 69.2%. For the same compound, the inhibition at 10 µM (SARS‐CoV‐2 Nsp15 [1]; [8]) was 65.2%, the inhibition at 10 µM (SARS‐CoV‐2 Nsp15 [1]; [9]) was 65.2% and the inhibition at 10 µM (SARS‐CoV‐2 Nsp15 [2]; 10 µM, L-cysteine buffer) was 69%. The IC50 (SARS‐CoV‐2 Nsp15 [2]; [10]) was 1.3 µM.

`CCCCCCCCN=c1ccn(CCCCCCCCCCn2ccc(=NCCCCCCCC)cc2)cc1` [Octenidine dihydrochloride] gave an IC50 (SARS‐CoV‐2 Nsp15 [1]; [3]) of 3.8 µM, a pIC50 (SARS‐CoV‐2 Nsp15 [1]; DTT buffer (Table S1)) of 5.42 and an inhibition at 10 µM (SARS‐CoV‐2 Nsp15 [1]; [7]) of 92.4%. It also gave an inhibition at 10 µM (SARS‐CoV‐2 Nsp15 [1]; [8]) of 98.6%, an inhibition at 10 µM (SARS‐CoV‐2 Nsp15 [1]; [9]) of 98.6% and an inhibition at 10 µM (SARS‐CoV‐2 Nsp15 [2]; 10 µM, L-cysteine buffer) of 103%. The IC50 (SARS‐CoV‐2 Nsp15 [2]; [10]) was 4.4 µM and the pIC50 (SARS‐CoV‐2 Nsp15 [2]) was 5.36.
